The values below are quoted from earlier work in paper PMC4961458 (eLife, 2016).

The test system of this series is ER. Further details: method as in van Kruchten et al., 2015. The note with it: 500 mg dose, 6/16 patients; ref van Kruchten et al., 2015; cited from earlier work.

Take `C[C@]12CC[C@@H]3c4ccc(O)cc4C[C@@H](CCCCCCCCC[S+]([O-])CCCC(F)(F)C(F)(F)F)[C@H]3[C@@H]1CC[C@@H]2O` (stereo partly shown) [Fulvestrant]: the “patients with incomplete inhibition of [18F]fluoroestradiol uptake” value is on record as 38 % of patients.
